The record followed here is patent US6603046B1, “Bis-aromatic a,β-unsaturated ketones” (Lica Pharmaceuticals A/S, priority 1992, dated 2003).

The test system of one data set is L. donovani. Briefly: L. donovani infection in hamsters (Example 9). The data set is classed as in vivo, syrian golden hamsters (Mesocricetus auratus). The conditions noted are these: i.p. 10 mg per kg two times per day for 7 days.
The next data set has as its system human PMN. Nature of the data set: Zymosan-enhanced chemiluminescence, PMN. Type of data set: cell-based. Conditions: read-out: percentage inhibition of chemiluminescence response to opsonized zymosan (mean ± SEM). The protocol:
Chemiluminescence. Monocytes were prepared from heparinized blood by metrizoate sodium-Ficoll (the same as lymphocyte proliferation). Polymorphonuclear leucocytes (PMN) were prepared from heparinized blood by dextran sedimentation and metrizoate sodium-Ficoll separation. Remaining erythrocytes were removed by hypotonic lysis. A zymosan-enhanced chemiluminescence assay was used. The assay was performed in a total volume of 5.5 ml at ambient temperature in glass scintillation vials. A Beckman L 8000 scintillation counter (placed under air-conditioned, thermostat controlled, 21±1° C. conditions) was used in the out-of-coincidence mode A 1.1 ml portion of PMN or monocyte suspension (1×10^6 cells per ml) was pre-incubated with 1.1 ml of various concentrations of licochalcone A for 30 min at 37° C. in a rotor at 20 rpm Luminol (5-amino-2,3-dihydro-1,4-phatalazinedione) obtained from Sigma Chemical Co., St Louis, Mo., U.S.A., was maintained as a stock solution of 10 mg/ml in NaOH (0.1 N) and diluted in Krebs-Ringer solution immediately before use. Each vial contained 5×10^5 pre-incubated PMN or monocyte, 4 mg of opsonized zymosan (Sigma), 50 μl of luminol solution, and 4.45 ml of Krebs-Ringer solution containing 5 mM glucose. The final concentration of luminol in the assay mixture was 5×10^−8m.

A short description of data set [1]: Reaction with N-acetyl-L-cysteine, HPLC (Example 26). Type of data set: physicochemical. The conditions noted are these: 7 days. The protocol: Formation of N-acetyl-L-cysteine conjugates of licochalcone A. A solution of 1.5 mg of licochalcone A and 100 mg of N-acetyl-L-cysteine in acetonitrile0.13 M aqueous potassium phosphate buffer solution pH 7.5 (1:3) was left for 7 days at ambient temperature protected from light.

Regarding `C=CC(C)(C)c1cc(/C=C/C(=O)c2ccc(O)cc2)c(OC)cc1O` [Licochalcone A, licochalcone A], in the data set on L. donovani, the “parasite load in the liver and the spleen” value is “reduced to almost undetectable levels”. Further, the inhibition at 1 µg/mL in the data set on human PMN (1 μg/ml) was determined as 2.1 ± 3.3%. Moreover, in the data set on human PMN (2 μg/ml), the inhibition at 2 µg/mL was found to be 10.3 ± 3.3%. Further, in the data set on human PMN (5 μg/ml), the inhibition at 5 µg/mL came out at 18.9 ± 3.7%. In addition, the inhibition at 10 µg/mL in the data set with human PMN (10 μg/ml) was 29.7 ± 4.8%. Besides, the inhibition at 20 µg/mL with human PMN (20 μg/ml) was 47 ± 4.3%. Also, in data set [1], the “stability in buffer without N-acetyl-L-cysteine” value is on record as “No similar decrease”. Moreover, the “reaction with N-acetyl-L-cysteine” value in data set [1] (acetonitrile-phosphate buffer pH 7.5 (1:3), ambient temperature) was “decreased amounts of licochalcone A and appearance of two new peaks”.
